pIC50: −log10 of the molar value. Calls of active or inactive are those of the source. No cut-off for these calls is given here.
How the values were obtained:
[1] = test system: HCT-116; assay: Induction of apoptosis in human HCT116 cells assessed as DNA content at G1 phase at 20 uM after 24 hrs by annexin V-FITC/propidium iodide staining-based flow cytometric analysis (reference value: 8%); type: functional
[2] = test system: HCT-116; assay: Induction of apoptosis in human HCT116 cells assessed as viable cells at 20 uM after 24 hrs by annexin V-FITC/propidium iodide staining-based flow cytometric analysis (reference value: 71 %); type: functional; conditions: HCT-116, 24 h, read-out: Activity
[3] = test system: HCT-116; assay: Induction of apoptosis in human HCT116 cells assessed as early apoptotic cells at 20 uM after 24 hrs by annexin V-FITC/propidium iodide staining-based flow cytometric analysis (reference value: 22%); type: functional
[4] = test system: HCT-116; assay: Induction of apoptosis in human HCT116 cells assessed as late apoptotic cells at 20 uM after 24 hrs by annexin V-FITC/propidium iodide staining-based flow cytometric analysis (reference value: 5%); type: functional
[5] = target: T1, Interleukin-1 receptor-associated kinase 4 (Homo sapiens) (UniProt Q9NWZ3); assay: Inhibition of human IRAK4
T1 sequence (whole entry): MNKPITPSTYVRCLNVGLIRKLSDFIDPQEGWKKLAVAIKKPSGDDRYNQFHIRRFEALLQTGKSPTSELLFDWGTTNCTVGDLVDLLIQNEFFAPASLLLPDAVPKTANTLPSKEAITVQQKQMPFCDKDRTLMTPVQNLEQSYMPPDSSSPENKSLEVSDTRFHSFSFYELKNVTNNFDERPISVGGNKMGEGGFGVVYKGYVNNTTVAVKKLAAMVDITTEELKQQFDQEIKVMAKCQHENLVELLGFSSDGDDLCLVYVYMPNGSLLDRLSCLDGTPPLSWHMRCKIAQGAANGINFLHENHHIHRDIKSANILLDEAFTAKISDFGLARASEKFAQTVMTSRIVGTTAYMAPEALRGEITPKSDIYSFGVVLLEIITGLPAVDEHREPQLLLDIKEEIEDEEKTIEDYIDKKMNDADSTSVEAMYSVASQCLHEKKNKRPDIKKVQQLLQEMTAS

[6] = target: Vascular endothelial growth factor receptor 2 (Homo sapiens) (UniProt P35968); assay: Inhibition of human KDR
Chain of Vascular endothelial growth factor receptor 2 (Homo sapiens) (P35968 whole entry, the tested form may be a part): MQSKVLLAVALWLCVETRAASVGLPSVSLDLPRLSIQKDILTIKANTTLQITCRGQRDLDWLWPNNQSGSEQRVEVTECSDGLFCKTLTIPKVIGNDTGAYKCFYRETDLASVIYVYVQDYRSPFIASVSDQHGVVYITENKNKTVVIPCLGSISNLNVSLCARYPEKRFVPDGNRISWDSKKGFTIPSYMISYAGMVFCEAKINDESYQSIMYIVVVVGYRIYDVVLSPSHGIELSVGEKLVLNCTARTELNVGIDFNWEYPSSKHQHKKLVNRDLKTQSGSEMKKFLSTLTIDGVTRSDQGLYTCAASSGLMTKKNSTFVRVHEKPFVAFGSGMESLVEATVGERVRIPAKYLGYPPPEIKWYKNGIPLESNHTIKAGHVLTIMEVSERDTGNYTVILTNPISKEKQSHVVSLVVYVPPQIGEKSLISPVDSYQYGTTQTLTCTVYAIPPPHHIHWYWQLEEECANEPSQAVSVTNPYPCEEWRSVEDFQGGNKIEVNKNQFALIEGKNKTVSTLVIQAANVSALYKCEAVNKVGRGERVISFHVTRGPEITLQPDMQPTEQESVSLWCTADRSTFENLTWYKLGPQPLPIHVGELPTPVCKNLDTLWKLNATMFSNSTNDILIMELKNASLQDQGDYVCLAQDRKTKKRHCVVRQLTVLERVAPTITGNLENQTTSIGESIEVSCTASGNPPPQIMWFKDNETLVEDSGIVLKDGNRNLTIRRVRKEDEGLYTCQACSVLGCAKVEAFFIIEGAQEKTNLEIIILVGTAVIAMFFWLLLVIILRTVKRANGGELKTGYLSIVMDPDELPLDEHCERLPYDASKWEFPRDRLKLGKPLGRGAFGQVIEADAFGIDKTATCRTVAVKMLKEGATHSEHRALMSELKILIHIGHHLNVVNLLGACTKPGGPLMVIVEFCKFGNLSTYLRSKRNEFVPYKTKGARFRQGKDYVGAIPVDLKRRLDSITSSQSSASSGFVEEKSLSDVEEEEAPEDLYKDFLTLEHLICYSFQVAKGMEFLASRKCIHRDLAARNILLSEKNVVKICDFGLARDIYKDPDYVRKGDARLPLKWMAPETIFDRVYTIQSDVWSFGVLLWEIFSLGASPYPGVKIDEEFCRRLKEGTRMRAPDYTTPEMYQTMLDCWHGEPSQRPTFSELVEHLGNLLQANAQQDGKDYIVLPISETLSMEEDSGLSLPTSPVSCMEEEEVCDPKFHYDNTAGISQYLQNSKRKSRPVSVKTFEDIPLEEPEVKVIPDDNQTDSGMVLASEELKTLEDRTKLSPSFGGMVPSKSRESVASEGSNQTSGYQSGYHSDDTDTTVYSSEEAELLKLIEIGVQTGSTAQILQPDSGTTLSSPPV

[7] = target: T2, Discoidin domain-containing receptor 2 (Homo sapiens) (UniProt Q16832); assay: Inhibition of human DDR2
T2 sequence (whole entry): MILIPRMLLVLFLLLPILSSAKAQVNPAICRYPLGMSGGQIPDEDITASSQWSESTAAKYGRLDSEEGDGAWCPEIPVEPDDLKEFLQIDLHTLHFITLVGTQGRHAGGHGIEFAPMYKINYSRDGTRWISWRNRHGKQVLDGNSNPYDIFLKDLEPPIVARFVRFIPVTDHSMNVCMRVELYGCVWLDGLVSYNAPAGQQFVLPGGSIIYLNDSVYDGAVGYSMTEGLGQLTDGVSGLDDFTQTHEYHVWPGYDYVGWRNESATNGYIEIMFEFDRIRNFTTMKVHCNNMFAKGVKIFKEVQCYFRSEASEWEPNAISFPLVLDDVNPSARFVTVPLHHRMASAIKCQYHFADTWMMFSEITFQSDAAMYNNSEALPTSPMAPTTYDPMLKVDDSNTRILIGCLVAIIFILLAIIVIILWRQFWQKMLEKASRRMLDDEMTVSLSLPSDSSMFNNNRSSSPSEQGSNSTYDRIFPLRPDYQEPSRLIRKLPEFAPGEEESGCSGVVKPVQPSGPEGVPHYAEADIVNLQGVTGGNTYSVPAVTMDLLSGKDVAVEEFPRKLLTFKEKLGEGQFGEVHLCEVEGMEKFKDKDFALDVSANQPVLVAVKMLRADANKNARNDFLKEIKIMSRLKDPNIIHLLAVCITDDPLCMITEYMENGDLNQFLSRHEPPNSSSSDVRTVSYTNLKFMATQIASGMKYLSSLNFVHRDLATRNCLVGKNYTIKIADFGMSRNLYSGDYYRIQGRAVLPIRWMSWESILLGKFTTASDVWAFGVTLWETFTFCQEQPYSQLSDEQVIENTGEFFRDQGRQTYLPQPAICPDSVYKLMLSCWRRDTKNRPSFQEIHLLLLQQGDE

[8] = target: T3, Serine/threonine-protein kinase Chk1 (Homo sapiens) (UniProt O14757); assay: Inhibition of human CHK1
T3 sequence (whole entry): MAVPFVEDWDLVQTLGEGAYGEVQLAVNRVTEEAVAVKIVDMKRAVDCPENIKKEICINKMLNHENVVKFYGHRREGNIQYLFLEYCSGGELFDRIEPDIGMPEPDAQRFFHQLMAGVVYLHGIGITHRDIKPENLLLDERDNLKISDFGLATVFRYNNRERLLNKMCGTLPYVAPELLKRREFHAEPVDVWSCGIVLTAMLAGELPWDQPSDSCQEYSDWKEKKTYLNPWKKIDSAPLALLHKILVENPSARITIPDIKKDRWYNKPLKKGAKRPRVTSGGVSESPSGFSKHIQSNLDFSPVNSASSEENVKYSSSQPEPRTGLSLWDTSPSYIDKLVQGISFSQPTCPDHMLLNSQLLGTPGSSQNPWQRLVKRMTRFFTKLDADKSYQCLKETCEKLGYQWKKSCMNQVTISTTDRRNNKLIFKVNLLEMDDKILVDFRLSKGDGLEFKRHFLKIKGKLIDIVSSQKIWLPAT

[9] = target: RAF proto-oncogene serine/threonine-protein kinase (Homo sapiens) (UniProt P04049); assay: Inhibition of human c-RAF
Chain of RAF proto-oncogene serine/threonine-protein kinase (Homo sapiens) (P04049 whole entry): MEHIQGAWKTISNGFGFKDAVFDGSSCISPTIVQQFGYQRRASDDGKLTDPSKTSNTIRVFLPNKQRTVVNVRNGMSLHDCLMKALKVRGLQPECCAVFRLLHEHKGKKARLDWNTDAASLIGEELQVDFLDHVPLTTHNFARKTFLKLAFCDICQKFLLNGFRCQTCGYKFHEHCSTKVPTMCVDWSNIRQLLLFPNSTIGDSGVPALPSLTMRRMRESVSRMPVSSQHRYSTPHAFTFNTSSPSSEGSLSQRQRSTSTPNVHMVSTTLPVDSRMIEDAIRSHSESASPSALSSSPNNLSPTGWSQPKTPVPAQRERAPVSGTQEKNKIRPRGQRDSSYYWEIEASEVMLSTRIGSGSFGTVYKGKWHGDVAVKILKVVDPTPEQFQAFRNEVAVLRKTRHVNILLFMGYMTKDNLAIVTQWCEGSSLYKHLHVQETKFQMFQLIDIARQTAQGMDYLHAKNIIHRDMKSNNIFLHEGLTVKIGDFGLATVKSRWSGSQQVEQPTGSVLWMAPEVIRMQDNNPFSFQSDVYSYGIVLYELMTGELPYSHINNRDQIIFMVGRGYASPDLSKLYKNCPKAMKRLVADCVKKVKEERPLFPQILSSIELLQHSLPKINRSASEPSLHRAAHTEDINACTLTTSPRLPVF

[10] = test system: HCT-116; assay: Induction of apoptosis in human HCT116 cells assessed as PARP cleavage at 20 uM after 24 to 48 hrs by Western blot analysis; type: functional, cell-based
[11] = test system: HCT-116; assay: Cell cycle arrest in human HCT116 cells assessed as accumulation at G2/M phase at 20 uM after 48 hrs by propidium iodide staining-based flow cytometric analysis (reference value: 2.9%); type: functional
[12] = test system: HCT-116; assay: Cell cycle arrest in human HCT116 cells assessed as accumulation at S phase at 20 uM after 48 hrs by propidium iodide staining-based flow cytometric analysis (reference value: 2.9%); type: functional
[13] = test system: HCT-116; assay: Cell cycle arrest in human HCT116 cells assessed as accumulation at G1 phase at 20 uM after 48 hrs by propidium iodide staining-based flow cytometric analysis (reference value: 2.9%); type: functional
[14] = test system: HCT-116; assay: Cell cycle arrest in human HCT116 cells assessed as accumulation at G1 phase at 20 uM after 24 hrs by propidium iodide staining-based flow cytometric analysis (reference value: 2.9%); type: functional
[15] = test system: HCT-116; assay: Cell cycle arrest in human HCT116 cells assessed as accumulation at G2/M phase at 20 uM after 12 hrs by propidium iodide staining-based flow cytometric analysis (reference value: 20.8%); type: functional
[16] = test system: HCT-116; assay: Cell cycle arrest in human HCT116 cells assessed as accumulation at S phase at 20 uM after 12 hrs by propidium iodide staining-based flow cytometric analysis (reference value: 26.9%); type: functional
[17] = test system: HCT-116; assay: Cytotoxicity against human HCT116 cells assessed as decrease in cell viability at > 20 uM after 24 hrs by CCK8 assay; type: functional, cell-based
[18] = test system: HCT-116; assay: Cytotoxicity against human HCT116 cells assessed as cell survival at 0.5 to 5 uM after 7 days by crystal violet staining assay; type: functional, cell-based; conditions: HCT-116, 168 h

Question: How did the Activity [1] turn out when `COc1ccc2c(c1)C=C(C(=O)/C=C/c1c(OC)cc(OC)cc1OC)CO2` was run?
Answer: The Activity was 99%.

Question: And the viability at 20 µM [2]?
Answer: The viability at 20 µM was 0%.

Question: And the Activity [3]?
Answer: Its Activity is 86%.

Question: What about the Activity [4] of the same molecule?
Answer: The Activity was 14%.

Question: What about the inhibition [5] of the same molecule?
Answer: Its inhibition is “inactive”.

Question: And the inhibition [6]?
Answer: Its inhibition is “inactive”.

Question: What about the inhibition [7] of the same molecule?
Answer: Its inhibition is “inactive”.

Question: And the inhibition [8]?
Answer: Its inhibition is “inactive”.

Question: And the inhibition [9]?
Answer: Its inhibition is “inactive”.

Question: And the Activity [10]?
Answer: The Activity was “Active”.

Question: And the Activity [11]?
Answer: Its Activity is 8.4%.

Question: What about the Activity [12] of the same molecule?
Answer: The Activity was 13.2%.

Question: And the Activity [13]?
Answer: The Activity was 29.5%.

Question: What about the Activity [14] of the same molecule?
Answer: Its Activity is 23.1%.

Question: And the Activity [15]?
Answer: The Activity was 44.2%.

Question: What about the Activity [16] of the same molecule?
Answer: The Activity was 19.6%.

Question: And the Activity [17]?
Answer: Its Activity is “Active”.

Question: What about the pIC50 [18] of the same molecule?
Answer: The pIC50 was 7.01.

Reference: ChEMBL document CHEMBL2396526, “Chromenylchalcones showing cytotoxicity on human colon cancer cell lines and in silico docking with aurora kinases” (Bioorg Med Chem, 2013)
